Measured values from paper PMC8495455, “Discovery of a transdermally deliverable pentapeptide for activating AdipoR1 to promote hair growth” (EMBO Molecular Medicine, 2021).

Assays:
HGF mRNA = assay: qRT-PCR growth factor gene expression in DP cells, HGF; type: cell-based, human; conditions: for mRNA_HGF: DP cells
Text: Next, we investigated the downstream effects of P5 on hair growth factor genes and proteins in DP cells. […] We tested whether P5 can also increase the mRNA levels and proteins of hair growth factors in DP cells: IGF‐1, VEGF, HGF, platelet‐derived growth factor alpha (PDGFA), and fibroblast growth factor (FGF) 7, which are known to induce or maintain the anagen phase of the hair cycle (Jindo et al, [1994]; Philpott et al, [1994]; Yano et al, [2001]; Jang, [2005]; Tomita et al, [2006]; Iino et al, [2007]).
Total RNA was isolated from P5‐treated DP cells using RNAiso Plus (#9109; TaKaRa). We used the total RNA (1 µg) for cDNA synthesis using a RevertAid First Strand cDNA Synthesis Kit (Thermo Fisher) according to the manufacturer's instructions. The mRNA expression levels were quantified on a 7500 Real‐time PCR System (Thermo Fisher) using TB Green Premix Ex Taq (TaKaRa Bio): human IGF‐1, VEGF, HGF, PDGFA, FGF7, and glyceraldehyde 3‐phosphate dehydrogenase (GAPDH) (Appendix Table S2). The relative expression levels of each gene were determined by the 2^‐ΔΔCT method.

[1] = test system: AMPK phosphorylation through AdipoR1 in DP cells; assay: Western blot p-AMPK in AdipoR1 siRNA-transfected DP cells; type: cell-based, human
Text: Following the confirmation of the molecular interaction between AdipoR1 and P5, we evaluated the activation of the intracellular signaling pathway by P5. We investigated whether APN treatment on ORS and DP cells could activate AMPK or ERK signaling pathways, which are previously known to be downstream effectors of AdipoR1 (Mao et al, [2006]; Deepa & Dong, [2009]; Shibata et al, [2012]). […] Next, for determination of whether both P5 and APN mediates the phosphorylation of AMPK through AdipoR1 in ORS and DP cells, the cells were transfected with AdipoR1 siRNA (Appendix Fig S1). […] Collectively, P5 activates AMPK signaling pathway through AdipoR1 in ORS and DP cells in vitro.
All transfections were performed using Lipofectamine 2000 following the manufacturer’s instructions (#11668019; Thermo Fisher). Human DP and ORS cells were cultured without antibiotics until reaching 50% confluency. AdipoR1 or scrambled siRNA (Bioneer) was used. The culture medium was changed 6 h after transfection, and the cells were incubated for another 24 h before subsequent analyses.
(§1) Human ORS and DP cells or skin tissue were lysed (RIPA lysis buffer; #20‐188; Merck Millipore). […] Antibody‐antigen complexes detected by enhanced chemiluminescent substrate (Thermo Fisher) were captured and quantified by Amersham imager 680 systems (GE Healthcare).

[2] = test system: p-AMPK in human buttock skin; assay: Topical application of P5 on human skin in vivo, p-AMPK (IF, Western blot); conditions: topical 0.075, 0.75, 1.5, or 7.5 mM on buttock, occluded, 24 h; IF and Western blot
Text: Next, we checked whether topically applied P5 can be delivered into human skin using ex vivo skin tissue culture model (Fig EV4A) (Haslam et al, [2018]). After topical application of vehicle or P5 on the ex vivo skin tissue, the dermal lysate of each tissue was examined by the qualitative mass spectrometry (MS). […] To trace the origin of P5, we used isotope‐marked P5 (P5*), in which carbon (^12C) atoms of Gly were substituted with isotope carbon atoms (^13C) increasing the molecular weight by 2 compared to that of original P5 (Fig EV4B). […] Collectively, P5 can be transdermally delivered into human skin.
as §1, with “Millipore). The obtained protein was then separated by 8% SDS–PAGE and transferred to a polyvinylidene fluoride membrane (Amersham). The protein transferred membranes were incubated overnight with the specific antibodies.” for “Millipore).”
Paraffin‐embedded mouse cutaneous back tissue was sectioned (4 μm thickness) and stained with hematoxylin and eosin. […] IF intensity was observed and recorded with a Nikon Eclipse Ni‐E fluorescence microscope (Nikon). […]

GLYYF [P5, GST-fused (GST-P5) in pulldown assays]
mRNA_HGF (HGF mRNA; P5 5μM, relative to Control = 1, replicate 1): 3.441 | mRNA_HGF (HGF mRNA; P5 5μM, relative to Control = 1, replicate 2): 1.115 | mRNA_HGF (HGF mRNA; P5 5μM, relative to Control = 1, replicate 3): 3.233 | mRNA_HGF (HGF mRNA; P5 5μM, relative to Control = 1, replicate 4): 5.51 | mRNA_HGF (HGF mRNA; P5 5μM, relative to Control = 1, replicate 5): 1.947 | mRNA_HGF (HGF mRNA; P5 5μM, relative to Control = 1, replicate 6): 1.893 | mRNA_HGF (HGF mRNA; P5 25μM, relative to Control = 1, replicate 1): 6.428 | mRNA_HGF (HGF mRNA; P5 25μM, relative to Control = 1, replicate 2): 1.581 | mRNA_HGF (HGF mRNA; P5 25μM, relative to Control = 1, replicate 3): 2.359 | mRNA_HGF (HGF mRNA; P5 25μM, relative to Control = 1, replicate 4): 5.518 | mRNA_HGF (HGF mRNA; P5 25μM, relative to Control = 1, replicate 5): 2.408 | mRNA_HGF (HGF mRNA; P5 25μM, relative to Control = 1, replicate 6): 2.218 | HGF mRNA expression (HGF mRNA; P5-treated DP cells, n = 6): significantly increased | p-AMPK intensity after AdipoR1 siRNA transfection, DP cells [1]: intensity was reduced | Phosphorylation of AMPK in human skin in vivo [2]: induced the phosphorylation of AMPK in dermis as well as epidermis
